Assay results from patent US12077503B2, “Substituted cyclic amides and their use as herbicides” (FMC CORPORATION, priority 2015, dated 2024).
Read-outs that look alike come from different tables or passages of the source.

Key:
Format in all cases: in vivo
[1] = test system: pigweed (Amaranthus retroflexus); test: Test A postemergence; conditions: Amaranthus retroflexus, post-emergence, 240 h, 125 g ai/ha
Procedure, shortened: (§1)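 Seeds sprayed preemergence with a directed soil spray, or plants at 2 to 10 cm height and one- to two-leaf stage sprayed postemergence, with test chemicals in a non-phytotoxic solvent mixture containing surfactant, in loam soil–sand blend. Injury rated visually against untreated controls after about 10 d in greenhouse, 0 (no effect) to 100 (complete control).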

[2] = test system: ragweed (common ragweed, Ambrosia elatior); test: Test A postemergence; conditions: Ambrosia artemisiifolia, post-emergence, 240 h, 125 g ai/ha
Procedure, shortened: as §1

[3] = test system: Kochia (Kochia scoparia); test: Test A postemergence; conditions: Bassia scoparia, post-emergence, 240 h, 125 g ai/ha
Procedure, shortened: as §1

[4] = test system: ryegrass, Italian (Italian ryegrass, Lolium multiflorum); test: Test A postemergence; conditions: Lolium multiflorum, post-emergence, 240 h, 125 g ai/ha
Procedure, shortened: as §1

[5] = test system: barnyardgrass (Echinochloa crus-galli); test: Test A postemergence; conditions: Echinochloa crus-galli, post-emergence, 240 h, 125 g ai/ha
Procedure, shortened: as §1

[6] = test system: Galium (catchweed bedstraw, Galium aparine); test: Test A postemergence; conditions: Galium, post-emergence, 240 h, 125 g ai/ha
Procedure, shortened: as §1

[7] = test system: corn (Zea mays); test: Test A postemergence; conditions: Zea mays, post-emergence, 240 h, 125 g ai/ha
Procedure, shortened: as §1

[8] = test system: wheat (Triticum aestivum); test: Test A postemergence; conditions: Triticum aestivum, post-emergence, 240 h, 125 g ai/ha
Procedure, shortened: as §1

[9] = test system: giant foxtail (Setaria faberii); test: Test A postemergence; conditions: Setaria faberi, post-emergence, 240 h, 125 g ai/ha
Procedure, shortened: as §1

[10] = test system: blackgrass (Alopecurus myosuroides); test: Test A postemergence; conditions: Alopecurus myosuroides, post-emergence, 240 h, 125 g ai/ha
Procedure, shortened: as §1

[11] = test system: ducksalad (Heteranthera limosa); test: Test B flooded paddy test; conditions: Heteranthera limosa, Flood, 250 g ai/ha; scale of 0 to 100 where 0 is no effect and 100 is complete control; read-out: Ducksalad plant response rating
Procedure, shortened: (§2)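 Flooding to 3 cm over soil accompanied treatment, which consisted of adding compound to the standing water around 2-leaf plants; depth was then maintained. Visual assessment versus controls followed at 13 to 15 d (scale 0–100, 0 meaning no effect).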

[12] = test system: rice (Oryra sativa); test: Test B flooded paddy test; conditions: Oryza sativa, Flood, 250 g ai/ha; scale of 0 to 100 where 0 is no effect and 100 is complete control; read-out: Rice plant response rating
Procedure, shortened: as §2

[13] = test system: barnyardgrass (Echinochloa crus-galli); test: Test B flooded paddy test; conditions: Echinochloa crus-galli, Flood, 250 g ai/ha; scale of 0 to 100 where 0 is no effect and 100 is complete control; read-out: Barnyardgrass plant response rating
Procedure, shortened: as §2

[14] = test system: sedge, umbrella (small-flower umbrella sedge, Cyperus difformis); test: Test B flooded paddy test; conditions: Cyperus difformis, Flood, 250 g ai/ha; scale of 0 to 100 where 0 is no effect and 100 is complete control; read-out: Sedge, Umbrella plant response rating
Procedure, shortened: as §2

[15] = test system: pigweed (Amaranthus retroflexus); test: Test A preemergence; conditions: Amaranthus retroflexus, pre-emergence, 240 h; for pest or weed control at 125 g/ha: 125 g ai/ha

O=C1NC[C@H](c2cc(C(F)(F)F)ccn2)[C@H]1C(=O)Nc1ccccc1F [Compound 948]
pest or weed control at 125 g/ha ([1]; Postemergence, visual injury after approximately 10 d, 0 to 100 scale where 0 is no effect and 100 is complete control, read-out: Plant response rating, Pigweed): 0%
pest or weed control at 125 g/ha ([2]; Postemergence, visual injury after approximately 10 d, 0 to 100 scale where 0 is no effect and 100 is complete control, read-out: Plant response rating, Ragweed): 0%
pest or weed control at 125 g/ha ([3]; Postemergence, visual injury after approximately 10 d, 0 to 100 scale where 0 is no effect and 100 is complete control, read-out: Plant response rating, Kochia): 0%
pest or weed control at 125 g/ha ([4]; Postemergence, visual injury after approximately 10 d, 0 to 100 scale where 0 is no effect and 100 is complete control, read-out: Plant response rating, Ryegrass, Italian): 0%
pest or weed control at 125 g/ha ([5]; Postemergence, visual injury after approximately 10 d, 0 to 100 scale where 0 is no effect and 100 is complete control, read-out: Plant response rating, Barnyardgrass): 70%
pest or weed control at 125 g/ha ([6]; Postemergence, visual injury after approximately 10 d, 0 to 100 scale where 0 is no effect and 100 is complete control, read-out: Plant response rating, Galium): 0%
Corn plant response rating (crop injury, 0 = no effect, 100 = complete kill) at 125 g/ha ([7]; Postemergence, visual injury after approximately 10 d, 0 to 100 scale where 0 is no effect and 100 is complete control): 0%
plant injury at 125 g/ha ([8]; Postemergence, visual injury after approximately 10 d, 0 to 100 scale where 0 is no effect and 100 is complete control, read-out: Plant response rating, Wheat): 0%
pest or weed control at 125 g/ha ([9]; Postemergence, visual injury after approximately 10 d, 0 to 100 scale where 0 is no effect and 100 is complete control, read-out: Plant response rating, Foxtail, Giant): 70%
pest or weed control at 125 g/ha ([10]; Postemergence, visual injury after approximately 10 d, 0 to 100 scale where 0 is no effect and 100 is complete control, read-out: Plant response rating, Blackgrass): 0%
pest or weed control at 250 g/ha [11]: 0%
pest or weed control at 250 g/ha [12]: 0%
pest or weed control at 250 g/ha [13]: 0%
pest or weed control at 250 g/ha [14]: 0%
pest or weed control at 125 g/ha ([15]; Preemergence, visual injury rating after approximately 10 d, read-out: Pigweed plant response rating (0 to 100 scale, 0 is no effect, 100 is complete control)): 0%
pest or weed control at 500 g/ha ([15]; 500 g ai/ha, preemergence, visual injury rating about 10 d after treatment, 0 to 100 scale (0 no effect, 100 complete control), read-out: Pigweed plant response rating): 0%

COc1cc([C@H]2CN(C)C(=O)[C@@H]2C(=O)Nc2ccccc2F)cc(C(F)(F)F)c1 [Compound 855]
pest or weed control at 125 g/ha ([1]; postemergence, visual injury rating after approximately 10 d, read-out: Pigweed plant response rating (0 to 100 scale, 0 no effect, 100 complete control)): 20%
pest or weed control at 125 g/ha ([2]; postemergence, visual injury rating after approximately 10 d, read-out: Ragweed plant response rating (0 to 100 scale, 0 no effect, 100 complete control)): 0%
pest or weed control at 125 g/ha ([3]; postemergence, visual injury rating after approximately 10 d, read-out: Kochia plant response rating (0 to 100 scale, 0 no effect, 100 complete control)): 0%
pest or weed control at 125 g/ha ([4]; postemergence, visual injury rating after approximately 10 d, read-out: Ryegrass, Italian plant response rating (0 to 100 scale, 0 no effect, 100 complete control)): 20%
pest or weed control at 125 g/ha ([5]; postemergence, visual injury rating after approximately 10 d, read-out: Barnyardgrass plant response rating (0 to 100 scale, 0 no effect, 100 complete control)): 90%
pest or weed control at 125 g/ha ([6]; postemergence, visual injury rating after approximately 10 d, read-out: Galium plant response rating (0 to 100 scale, 0 no effect, 100 complete control)): 0%
plant injury at 125 g/ha ([7]; postemergence, visual injury rating after approximately 10 d, read-out: Corn plant response rating (0 to 100 scale, 0 no effect, 100 complete control)): 70%
plant injury at 125 g/ha ([8]; postemergence, visual injury rating after approximately 10 d, read-out: Wheat plant response rating (0 to 100 scale, 0 no effect, 100 complete control)): 50%
pest or weed control at 125 g/ha ([9]; postemergence, visual injury rating after approximately 10 d, read-out: Foxtail, Giant plant response rating (0 to 100 scale, 0 no effect, 100 complete control)): 90%
pest or weed control at 125 g/ha ([10]; postemergence, visual injury rating after approximately 10 d, read-out: Blackgrass plant response rating (0 to 100 scale, 0 no effect, 100 complete control)): 60%
pest or weed control at 250 g/ha [11]: 75%
pest or weed control at 250 g/ha [12]: 0%
pest or weed control at 250 g/ha [13]: 70%
pest or weed control at 250 g/ha [14]: 0%
pest or weed control at 125 g/ha ([15]; preemergence, 0 to 100 scale where 0 is no effect and 100 is complete control, read-out: Pigweed plant response rating): 30%
